Literature values, collected in US6756056B2, “Treatment of Parkinson's disease and related disorders by novel formulations of the combination carbidopa-levodopa” (priority 1997, dated 2004).

Conditions: doses of 400 mg per day

C[C@@](Cc1ccc(O)c(O)c1)(NN)C(=O)O [carbidopa]
Adverse effects: apparently devoid of adverse effects
